Experimental data reported in patent publication US20080261994A1, “CYCLOPROPANE COMPOUNDS AND PHARMACEUTICAL USE THEREOF” (Japan Tobacco Inc., priority 2003, published 2008).
Like-named read-outs stand apart in the source and are kept apart here.

How the values were obtained:
Assay type in all cases: biochemical
[1] = target: T1, Recombinant Human MMP-13 (Homo sapiens, UniProt P45452); assay: MMP-13 inhibitory activity (MMP-13 specific fluorescent substrate with quencher)
T1 construct: purchased R&D systems 511-MM
Summary of the method: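 Recombinant human MMP-13 with test compound, reaction started with quenched fluorogenic peptide 7-MCA-Pro-CHA-Gly-NVal-His-Ala-DPA in Tris-HCl buffer, 1 h at 25 °C, stopped with acetic acid. Fluorescence at Ex 325/Em 405 nm; % inhibition versus enzyme-free and inhibitor-free wells, reported as IC50 (μM).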

[2] = target: T2, MMP-1 (Homo sapiens, UniProt P03956); assay: MMP-1 inhibitory action (Type I collagen Activity Measurement kit, FITC-labeled collagen type I)
T2 sequence (P03956 100-469): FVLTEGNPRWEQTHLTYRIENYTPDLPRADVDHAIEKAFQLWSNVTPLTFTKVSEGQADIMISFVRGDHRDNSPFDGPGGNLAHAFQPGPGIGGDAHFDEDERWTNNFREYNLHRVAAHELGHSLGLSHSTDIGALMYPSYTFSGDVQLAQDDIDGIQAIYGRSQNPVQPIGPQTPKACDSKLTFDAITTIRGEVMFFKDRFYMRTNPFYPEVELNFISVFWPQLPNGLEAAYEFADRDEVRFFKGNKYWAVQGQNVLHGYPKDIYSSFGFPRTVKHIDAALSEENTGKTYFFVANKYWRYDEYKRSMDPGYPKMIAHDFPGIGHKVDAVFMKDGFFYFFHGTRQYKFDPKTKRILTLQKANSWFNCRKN

[3] = target: T3, aggrecanase-1 (Homo sapiens, UniProt O75173); assay: Aggrecanase-1 inhibitory action (Particle Assay, GAG release from aggrecan-containing polyacrylamide particles)
T3 sequence (O75173 213-837): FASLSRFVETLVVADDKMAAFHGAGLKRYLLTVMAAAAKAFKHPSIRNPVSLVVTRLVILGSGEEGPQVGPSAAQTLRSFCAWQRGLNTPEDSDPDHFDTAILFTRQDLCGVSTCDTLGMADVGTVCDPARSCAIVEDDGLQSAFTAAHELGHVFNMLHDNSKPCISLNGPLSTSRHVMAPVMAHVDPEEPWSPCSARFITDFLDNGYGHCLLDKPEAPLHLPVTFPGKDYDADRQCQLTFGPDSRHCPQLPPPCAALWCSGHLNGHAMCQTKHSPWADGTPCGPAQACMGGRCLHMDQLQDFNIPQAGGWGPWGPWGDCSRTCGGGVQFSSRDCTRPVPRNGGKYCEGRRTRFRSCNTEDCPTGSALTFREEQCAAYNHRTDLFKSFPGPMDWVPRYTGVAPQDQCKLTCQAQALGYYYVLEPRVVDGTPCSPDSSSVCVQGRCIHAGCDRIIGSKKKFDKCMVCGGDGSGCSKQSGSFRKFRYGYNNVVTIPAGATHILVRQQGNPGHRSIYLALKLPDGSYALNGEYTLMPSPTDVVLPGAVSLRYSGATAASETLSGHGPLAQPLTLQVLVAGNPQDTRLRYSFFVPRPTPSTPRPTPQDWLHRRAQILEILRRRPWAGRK
Summary of the method: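 Enzyme and compound incubated with aggrecan-containing polyacrylamide particles in Tris-HCl buffer at 37° C for 15 h. Released GAG in supernatant measured with 1,9-dimethylmethylene blue at 595 nm against chondroitin sulfate standard; % inhibition from enzyme-free and inhibitor-free wells, reported as TC50 (μM).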

[4] = Experimental Example 3, read-out: IC50 MMP13
[5] = Experimental Example 2, read-out: IC50 MMP1
[6] = Experimental Example 1, read-out: IC50 AG1
[7] = Recombinant Human MMP-13, fluorescent substrate, 25° C. for 1 h, read-out: IC50 MMP13 (Experimental Example 3)
[8] = MMP-1 inhibitory action, FITC-labeled collagen type I, 37° C. for 3 hr, read-out: IC50 MMP1 (Experimental Example 2)
[9] = aggrecanase-1 inhibitory action, read-out: IC50 AG1 (Experimental Example 1)

| SMILES | IC50 [1, 4] [µM] | IC50 [2, 5] [µM] | IC50 [3, 6] [µM] | IC50 [1, 7] [µM] | IC50 [2, 8] [µM] | IC50 [3, 9] [µM] |
| --- | --- | --- | --- | --- | --- | --- |
| Cc1cnn(-c2ccc(S(=O)(=O)N[C@@]3(C(=O)O)C(C)[C@@H]3c3ccccc3)s2)c1 (stereo partly drawn) [Example 2-287] | < 0.1 | < 1 | < 0.1 |  |  |  |
| O=C(O)C1(NS(=O)(=O)c2ccc(-c3ccc(Cl)cc3)cc2)CC1c1cccc(-c2ccccc2)c1 (stereo not drawn) [Example 1-26] |  |  |  | < 1 | ≥ 10 | < 1 |
| O=C(O)[C@]1(NS(=O)(=O)c2ccc(-c3cc(C(F)(F)F)on3)s2)C[C@@H]1c1ccccc1 [Example 2-43] |  |  |  | < 0.1 | < 1 | < 0.1 |
| O=C(c1ccccc1C1CC1(NS(=O)(=O)c1ccc(-c2ccc(Cl)cc2)s1)C(=O)O)N1CCOCC1 (stereo not drawn) [Example 2-76] |  |  |  | < 1 | ≥ 10 | < 0.1 |
| O=C(O)C1(NS(=O)(=O)c2ccc(-c3ccc(Cl)cc3)cc2)CC1c1cccc(OCCn2ccnc2)c1 (stereo not drawn) [Example 1-83] |  |  |  | < 0.1 | ≥ 1 | < 1 |
| O=C(NO)C1(NS(=O)(=O)c2ccc(-c3ccc(Cl)cc3)s2)C2CCCc3ccccc3C21 (stereo not drawn) [Example 2-391] | < 1 | ≥ 10 | ≥ 1 |  |  |  |
| COc1cccc(C2CC2(NS(=O)(=O)c2ccc(-c3ccc(Cl)cc3)cc2)C(=O)O)c1 (stereo not drawn) [Example 1-12] |  |  |  | < 0.1 | ≥ 1 | < 1 |
| CC1[C@H](c2ccccc2)[C@]1(NS(=O)(=O)c1ccc(-c2ccc(C(F)(F)F)cc2)s1)C(=O)O (stereo partly drawn) [Example 2-590] | < 0.1 | ≥ 1 | < 0.1 |  |  |  |
| C[C@]1(c2ccccc2)C[C@@]1(NS(=O)(=O)c1ccc(-c2ccc(Cl)c(F)c2)s1)C(=O)O [Example 2-434] | < 1 | ≥ 1 | < 0.1 |  |  |  |
| CCNC(=O)NCC1(c2ccccc2)CC1(NS(=O)(=O)c1ccc(-c2ccc(Cl)cc2)s1)C(=O)O (stereo not drawn) [Example 2-396] | < 1 | ≥ 10 | < 1 |  |  |  |
| CC1C(c2ccccc2)C1(NS(=O)(=O)c1ccc(-c2ccc(Cl)cc2)s1)C(=O)O (stereo not drawn) [Example 2-237] |  |  |  | < 0.1 | ≥ 1 | < 0.1 |
| C[C@]1(c2ccccc2)C[C@@]1(NS(=O)(=O)c1ccc(-c2cccc(N)c2)s1)C(=O)O [Example 2-452] | < 0.1 | < 1 | < 1 |  |  |  |
| CN1CCN(CCOc2cccc(C3CC3(NS(=O)(=O)c3ccc(-c4ccc(Cl)cc4)s3)C(=O)O)c2)CC1 (stereo not drawn) [Example 2-198] |  |  |  | < 1 | ≥ 10 | < 1 |
| Nc1cccc([C@H]2C[C@@]2(NS(=O)(=O)c2ccc(-c3ccc(Cl)cc3)s2)C(=O)O)c1 [Example 2-174] |  |  |  | < 0.1 | ≥ 1 | < 0.1 |
| O=C(O)C1(NS(=O)(=O)c2ccc(-c3ccc(F)cc3)s2)CC1c1ccccc1 (stereo not drawn) [Example 2-21] |  |  |  | < 1 | ≥ 1 | < 1 |
| COCCN(C)C(=O)c1ccc(C2(CCCOC(C)=O)CC2(NS(=O)(=O)c2ccc(-c3cc(C(F)(F)F)on3)s2)C(=O)O)cc1 (stereo not drawn) [Example 2-271] | < 1 | ≥ 10 | ≥ 1 |  |  |  |
| CC(C)(O)COc1ccccc1C1CC1(NS(=O)(=O)c1ccc(-c2ccc(Cl)cc2)s1)C(=O)O (stereo not drawn) [Example 2-25] |  |  |  | < 1 | ≥ 10 | < 0.1 |
| O=C(O)C1(NS(=O)(=O)c2ccc(-c3ccc(Cl)cc3)s2)CC1c1cccc(OCc2cccnc2)c1 (stereo not drawn) [Example 1-107] |  |  |  | < 0.1 | ≥ 1 | < 0.1 |
| O=C(O)[C@]1(NS(=O)(=O)c2ccc(C3=NOC(O)(C(F)(F)F)C3)s2)C[C@@H]1c1ccccc1 (stereo partly drawn) [Example 2-35] |  |  |  | < 1 | ≥ 10 | < 1 |
